These results are taken from ChEMBL document CHEMBL5608189, “Design and synthesis of unique indole-benzosulfonamide oleanolic acid derivatives as potent antibacterial agents against MRSA” (Eur J Med Chem, 2024).

The structures appear in SMILES notation. ≈ marks a conversion by molar mass, not a printed value. Calls of active or inactive are those of the source. The calls are words filed in the database; no cut-off is given here. Where only a bound is given, the exact number is not on record here.

Series [1] concerns Staphylococcus aureus. The series can be described thus: Antibacterial activity against methicillin-resistant Staphylococcus aureus assessed as inhibition of bacterial growth at 1 times MIC measured every 2 hrs for 24 hrs by time kill assay. The class given is functional, organism-based.
In series [2] the test system is Staphylococcus aureus. Description: Resistant development in methicillin-resistant Staphylococcus aureus assessed as increase in MIC at sub-MIC measured after 20 passages. The format is functional, organism-based.
Series [3] has as its system Staphylococcus aureus. The series can be described thus: Antibacterial activity against Staphylococcus aureus ATCC 6538 assessed as inhibition of bacterial growth at 1 times MIC measured every 2 hrs for 24 hrs by time kill assay. The class given is functional, organism-based.
For series [4], the system named is Staphylococcus epidermidis. Description: Antibacterial activity against Staphylococcus epidermidis ATCC 12228 assessed as delay in bacterial growth at 0.5 times MIC measured every 2 hrs for 24 hrs by time kill assay. The class given is functional, organism-based.
Series [5] can be described thus: Hemolytic activity in rabbit red blood cells assessed as hemolytic rate at 128 times MIC measured after 1 hr by absorbance based method relative to control. The note with it: rabbit red blood cells (erythrocytes), read-out: Activity. The format is toxicity, cell-based, Oryctolagus cuniculus, Erythrocyte.
Series [6] deals with Staphylococcus epidermidis. The series can be described thus: Bactericidal activity against Staphylococcus epidermidis ATCC 12228 measured after 24 hrs. The format is functional.
Series [7] deals with Staphylococcus aureus. Description: Bactericidal activity against Staphylococcus aureus ATCC 6538 measured after 24 hrs. The format is functional.
For series [8], the system named is Staphylococcus epidermidis. Description: Antibacterial activity against Staphylococcus epidermidis ATCC 12228 assessed as inhibition of bacterial growth at 1 times MIC measured every 2 hrs for 24 hrs by time kill assay. The format is functional, organism-based.
The subject of series [9] is Staphylococcus aureus. The series can be described thus: Antibacterial activity against Staphylococcus aureus ATCC 29213 measured after 24 hrs by susceptibility assay. The class given is functional.
For series [10], the system named is Staphylococcus aureus. Description: Bactericidal activity against Staphylococcus aureus ATCC 29213 measured after 24 hrs. The format is functional.
The test system of series [11] is Staphylococcus aureus. The series can be described thus: Antibacterial activity against methicillin-resistant Staphylococcus aureus assessed as delay in bacterial growth at 0.5 times MIC measured every 2 hrs for 24 hrs by time kill assay. The class given is functional, organism-based.
For series [12], the system named is Staphylococcus aureus. The series can be described thus: Antibacterial activity against Staphylococcus aureus ATCC 6538 measured after 24 hrs by susceptibility assay. The class given is functional.
The test system of series [13] is Staphylococcus aureus. The series can be described thus: Antibacterial activity against Staphylococcus aureus ATCC 6538 assessed as delay in bacterial growth at 0.5 times MIC measured every 2 hrs for 24 hrs by time kill assay. The class given is functional, organism-based.
Series [14] deals with Staphylococcus aureus. The series can be described thus: Antibacterial activity against methicillin-resistant Staphylococcus aureus measured after 24 hrs by susceptibility assay. The class given is functional.
In series [15] the test system is Staphylococcus aureus. Description: Bactericidal activity against methicillin-resistant Staphylococcus aureus measured after 24 hrs. The class given is functional.
Series [16] concerns Staphylococcus aureus. The series can be described thus: Antibacterial activity against Staphylococcus aureus ATCC 6538 assessed as inhibition of bacterial growth at 2 to 4 times MIC measured every 2 hrs for 24 hrs by time kill assay relative to control. The class given is functional.
The test system of series [17] is Staphylococcus epidermidis. Description: Antibacterial activity against Staphylococcus epidermidis ATCC 12228 assessed as inhibition of bacterial growth at 2 to 4 times MIC measured every 2 hrs for 24 hrs by time kill assay relative to control. The format is functional.
The subject of series [18] is Staphylococcus epidermidis. Description: Antibacterial activity against Staphylococcus epidermidis ATCC 12228 measured after 24 hrs by susceptibility assay. The format is functional.
In series [19] the test system is Staphylococcus aureus. Description: Antibacterial activity against methicillin-resistant Staphylococcus aureus assessed as inhibition of bacterial growth at 2 to 4 times MIC measured every 2 hrs for 24 hrs by time kill assay relative to control. The class given is functional.
The subject of series [20] is Staphylococcus aureus. The series can be described thus: Induction of morphological changes in methicillin-resistant Staphylococcus aureus assessed as disruption of cellular structure at 8 times MIC incubated for 8 hrs by SEM analysis. The format is functional, organism-based.
For series [21], the system named is Staphylococcus aureus. The series can be described thus: Induction of morphological changes in methicillin-resistant Staphylococcus aureus assessed as appearance of wrinkled and depressed cell membrane surface at 8 times MIC incubated for 8 hrs by SEM analysis. The class given is functional, organism-based.

On to `Cc1ccc(S(=O)(=O)NC(=O)[C@]23CCC(C)(C)C[C@H]2C2=CC[C@@H]4[C@@]5(C)Cc6c([nH]c7c(C(=O)O)cccc67)C(C)(C)[C@@H]5CC[C@@]4(C)[C@]2(C)CC3)cc1`, for which the outcome in series [1], in [3], in [4], in series [8], in series [11] and in series [13] was Active. Moreover, in [2], the outcome was inactive. For the same molecule, the hemolysis at 1 h, 128 times MIC in [5] is less than 5%. Also, the minimal bactericidal concentration (MBC) in series [6] came to 4 µM (≈ 2.9 µg/mL); in series [7] it was 2 µM (≈ 1.45 µg/mL); in [10], 2 µM (≈ 1.45 µg/mL); in [15], 16 µM (≈ 11.6 µg/mL). Further, the MIC was found to be 2 µM (≈ 1.45 µg/mL) in [9], 1 µM (≈ 0.725 µg/mL) in [12], 2 µM (≈ 1.45 µg/mL) in series [14] and 2 µM (≈ 1.45 µg/mL) in series [18]. Besides, the “inhibition (INH)” value in series [16], in series [17] and in series [19] was 100% throughout.
On to `CC1(C)CC[C@]2(C(=O)NS(=O)(=O)c3ccc(Cl)cc3)CC[C@]3(C)C(=CC[C@@H]4[C@@]5(C)Cc6c([nH]c7cc(C(=O)O)ccc67)C(C)(C)[C@@H]5CC[C@]43C)[C@@H]2C1`, for which the MIC was 2 µM (≈ 1.49 µg/mL) in [9], 0.5 µM (≈ 0.373 µg/mL) in series [12], 2 µM (≈ 1.49 µg/mL) in series [14] and 1 µM (≈ 0.745 µg/mL) in [18].
With `CCn1cc(C(=O)O)c(=O)c2cc(F)c(N3CCNCC3)cc21` [NORFLOXACIN], in series [20], the result was inactive. In addition, the MIC worked out at 2 µM (≈ 0.639 µg/mL) in [9], 2 µM (≈ 0.639 µg/mL) in series [12], 4 µM (≈ 1.28 µg/mL) in series [14] and 1 µM (≈ 0.319 µg/mL) in series [18]. Further, the outcome in series [21] was Active.
For `CC1(C)CC[C@]2(C(=O)Nc3ccc(-c4ccccc4)cc3)CC[C@]3(C)C(=CC[C@@H]4[C@@]5(C)CCC(=O)C(C)(C)[C@@H]5CC[C@]43C)[C@@H]2C1`, the MIC in series [9], in series [12], in series [14] and in series [18] was more than 256 µM in each case.
For the molecule `CC1(C)CC[C@]2(C(=O)NS(=O)(=O)c3ccccc3)CC[C@]3(C)C(=CC[C@@H]4[C@@]5(C)Cc6c([nH]c7ccc(C(=O)O)cc67)C(C)(C)[C@@H]5CC[C@]43C)[C@@H]2C1`, the MIC in [9] is 2 µM (≈ 1.42 µg/mL); in [12], 1 µM (≈ 0.711 µg/mL); in series [14] it was 1 µM (≈ 0.711 µg/mL); in series [18], 2 µM (≈ 1.42 µg/mL).
Regarding `CC1(C)CC[C@]2(C(=O)NS(=O)(=O)c3ccc(C(=O)O)cc3)CC[C@]3(C)C(=CC[C@@H]4[C@@]5(C)Cc6c([nH]c7c(C(=O)O)cccc67)C(C)(C)[C@@H]5CC[C@]43C)[C@@H]2C1`, the MIC in [9] came to 2 µM (≈ 1.51 µg/mL); in [12] it was 0.5 µM (≈ 0.377 µg/mL); in series [14], 1 µM (≈ 0.755 µg/mL); in series [18] it was 1 µM (≈ 0.755 µg/mL).
As to `CC1(C)CC[C@]2(C(=O)NS(=O)(=O)c3ccc(Cl)cc3)CC[C@]3(C)C(=CC[C@@H]4[C@@]5(C)Cc6c([nH]c7ccc(C(=O)O)cc67)C(C)(C)[C@@H]5CC[C@]43C)[C@@H]2C1`, the MIC turned out to be 1 µM (≈ 0.745 µg/mL) in [9], 0.5 µM (≈ 0.373 µg/mL) in [12], 1 µM (≈ 0.745 µg/mL) in [14] and 1 µM (≈ 0.745 µg/mL) in series [18].
With `COc1ccc(S(=O)(=O)NC(=O)[C@]23CCC(C)(C)C[C@H]2C2=CC[C@@H]4[C@@]5(C)CCC(=O)C(C)(C)[C@@H]5CC[C@@]4(C)[C@]2(C)CC3)cc1`, the MIC in series [9], in series [12], in [14] and in series [18] was more than 256 µM throughout.
For the molecule `CC1(C)CC[C@]2(C(=O)NS(=O)(=O)c3ccccc3)CC[C@]3(C)C(=CC[C@@H]4[C@@]5(C)CCC(=O)C(C)(C)[C@@H]5CC[C@]43C)[C@@H]2C1`, the MIC is more than 256 µM in series [9], 128 µM (≈ 76 µg/mL) in series [12], more than 256 µM in [14] and more than 256 µM in [18].
On to `COc1cccc(OC)c1C(=O)N[C@@H]1C(=O)N2[C@@H]1SC(C)(C)[C@@H]2C(=O)O` [METHICILLIN], for which the MIC amounted to 2 µM (≈ 0.761 µg/mL) in [9], 4 µM (≈ 1.52 µg/mL) in [12], 256 µM (≈ 97.4 µg/mL) in [14] and 2 µM (≈ 0.761 µg/mL) in series [18].
Consider `CC(=O)c1ccc2c3c([nH]c2c1)C(C)(C)[C@@H]1CC[C@]2(C)[C@H](CC=C4[C@@H]5CC(C)(C)CC[C@]5(C(=O)NS(=O)(=O)c5ccccc5)CC[C@]42C)[C@@]1(C)C3`, for which the MIC in [9] worked out at 2 µM (≈ 1.42 µg/mL); in series [12] it was 1 µM (≈ 0.709 µg/mL); in series [14] it was 2 µM (≈ 1.42 µg/mL); in [18], 2 µM (≈ 1.42 µg/mL).
For `CC(=O)c1cccc2c3c([nH]c12)C(C)(C)[C@@H]1CC[C@]2(C)[C@H](CC=C4[C@@H]5CC(C)(C)CC[C@]5(C(=O)NS(=O)(=O)c5ccccc5)CC[C@]42C)[C@@]1(C)C3`, the outcome in series [1], in series [3], in series [4], in series [8], in series [11] and in [13] was Active. For the same molecule, the result in series [2] was inactive. In series [5], the hemolysis at 1 h, 128 times MIC was less than 5%. Besides, the MBC in series [6] turned out to be 2 µM (≈ 1.42 µg/mL); in series [7], 2 µM (≈ 1.42 µg/mL); in series [10], 2 µM (≈ 1.42 µg/mL); in [15], 4 µM (≈ 2.84 µg/mL). Moreover, the MIC was 2 µM (≈ 1.42 µg/mL) in series [9], 1 µM (≈ 0.709 µg/mL) in [12], 1 µM (≈ 0.709 µg/mL) in series [14] and 0.5 µM (≈ 0.355 µg/mL) in series [18]. Also, the “inhibition (INH)” value in series [16], in series [17] and in series [19] was 100% throughout.
As for `CC1(C)CC[C@]2(C(=O)Nc3ccc(-c4ccccc4)cc3)CC[C@]3(C)C(=CC[C@@H]4[C@@]5(C)Cc6c([nH]c7cccc(C(=O)O)c67)C(C)(C)[C@@H]5CC[C@]43C)[C@@H]2C1`, the MIC in series [9] was determined as 128 µM (≈ 92.5 µg/mL); in series [12] it was 32 µM (≈ 23.1 µg/mL); in series [14], 256 µM (≈ 185 µg/mL); in [18], 64 µM (≈ 46.3 µg/mL).
`CN1CCN(C(=O)[C@]23CCC(C)(C)C[C@H]2C2=CC[C@@H]4[C@@]5(C)Cc6c([nH]c7cc(C(=O)O)ccc67)C(C)(C)[C@@H]5CC[C@@]4(C)[C@]2(C)CC3)CC1`: the MIC was more than 256 µM in [9], more than 256 µM in series [12], 256 µM (≈ 167 µg/mL) in series [14] and 64 µM (≈ 41.9 µg/mL) in series [18].
